Here are results for 18 compounds from US7262185B2, “Benzazepine derivative, process for producing the same, and use” (Takeda Chemical Industries Ltd., priority 2001, dated 2007).

SMILES strings stand for the structures.

For the first experiment, the target named is T1, human CCR5 chemokine receptor (Homo sapiens, UniProt P51681).
T1 construct: expressed in transfected cells
T1 sequence (P51681 whole entry): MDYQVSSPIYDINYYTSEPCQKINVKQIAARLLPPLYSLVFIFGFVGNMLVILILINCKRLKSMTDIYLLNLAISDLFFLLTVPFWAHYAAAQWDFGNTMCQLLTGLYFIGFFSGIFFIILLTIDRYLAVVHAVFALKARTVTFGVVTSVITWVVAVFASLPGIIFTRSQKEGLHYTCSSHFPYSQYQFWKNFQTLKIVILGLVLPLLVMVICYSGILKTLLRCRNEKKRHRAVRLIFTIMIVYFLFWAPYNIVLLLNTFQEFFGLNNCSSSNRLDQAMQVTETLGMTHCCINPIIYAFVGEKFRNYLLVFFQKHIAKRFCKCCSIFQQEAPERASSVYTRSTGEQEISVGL
Kind of experiment: Inhibition of [125I]-RANTES binding to CCR5/CHO cells (CCR5 antagonistic activity). The settings on record: 40 min, test compound 1 μM, [125I]-RANTES as ligand, room temperature, read-out: Binding Inhibitory Ratio (%). On the procedure:
Cloning of CCR5 gene from human spleen cDNA was conducted using the PCR method. Using spleen cDNA (0.5 ng) (TOYOBO CO., LTD, QUICK-Clone cDNA) as a template, PCR was performed in a DNA Thermal Cycler 480 (manufactured by Perkin Elmer) (reaction conditions: 30 cycles of 95° C. for 1 minute, 60° C. for 1 minute, and 75° C. for 5 minutes) by adding primer sets, SEQ. ID NO: 1 (sequence length: 34; sequence type: nucleic acid; chain number: single strand; topology: linear; kind of sequence: other nucleic acid synthetic. DNA) described in Experimental. Example (1) of WO 99/32100, and SEQ ID NO: 2 (sequence length: 34; sequence type: nucleic acid; chain number: single strand; topology: linear; kind of sequence: other nucleic acid synthetic. DNA) described in Experimental. Example (1) of WO 99/32100, (25 pmol, respectively), which were prepared referring to the nucleotide sequence of CCR5 gene, as reported by Samson et al. (Biochemistry 35 (11), 3362-3367 (1996)) and by using TaKaRa. EX Taq (Takara Shuzo). The resultant. PCR product was subjected to agarose gel electrophoresis to collect an approximately 1.0 kb. DNA fragment, which was subjected to an Original TA Cloning Kit (Funakoshi Co., Ltd.) to carry out cloning of CCR5 gene.
The plasmid obtained above was digested with restriction enzymes XbaI (Takara Shuzo Co., Ltd.) and BamHI (Takara Shuzo Co., Ltd.), and then subjected to agarose gel electrophoresis to collect DNA fragment of about 1.0 kb. The DNA fragment and plasmid pcDNA 3.1 (Funakoshi. Co., Ltd.) for expression in animal cells, which was previously digested with XbaI and BamHI, were mixed and ligated by DNA Ligation Kit Ver. 2 (Takara Shuzo Co., Ltd.). The resulting plasmid was subjected to transformation into. E. coli JM109 competent cells (Takara Shuzo Co., Ltd.) to obtain plasmid pCKR5.
CHO-K1 cells were cultured in a 750-ml tissue culture flask (Becton, Dickinson and Company.) using. Ham F12 medium (NIHON PHARMACEUTICAL CO., LTD.) containing 10% fetal bovine serum (Lifetech Oriental) and were collected using 0.5 g/L trypsin-0.2 g/L EDTA (Lifetech Oriental). The cells were washed with PBS (Lifetech Oriental), centrifuged (1000 rpm, 5 minutes), and suspended in PBS. The DNA was introduced into the cells using a Gene Pulser (Bio-Rad Laboratories, Inc.) under the following conditions. Namely, 8×10^6 cells and 10 μg of plasmid pCKR5 for expression of human CCR5 were placed in a cuvette having a 0.4-cm gap, and electroporation was carried out with a voltage 0.25 kV and 960 μF of capacitance. Then, the cells were transferred into Ham's. F12 medium containing 10% fetal bovine serum, and incubated for 24 hours. The cells were collected, centrifuged, and suspended in Ham' F12 medium containing 10% fetal bovine serum and Geneticin (Lifetech Oriental) at a concentration of 500 μg/ml. The suspension of cells was diluted to a concentration of 10^4 cells/ml, and was inoculated onto 96-well plate (Becton Dickinson), to obtain Geneticin-resistant strain.
Then, resulting. Geneticin-resistant strain were cultured on 96-well plate (Becton Dickinson), and CCR5-expressing cells were selected from the resistant cells. Namely, in an assay buffer, (Ham's F12 medium containing 0.5% BSA, and 20 mM HEPES (Wako Pure Chemical Ind., pH 7.2)) to which was added […][125I]-RANTES (Amersham) as a ligand, the cells were subjected to a binding reaction at room temperature for 40 minutes. Wells containing the cells were washed with ice-cooled PBS, and 50 μl/well of 1M NaOH was added and stirred. The cells to which the ligand was bound specifically, i.e., CCR5/CHO cells, were selected by measurement of radioactivity using a […].
The CCR5/CHO cells were inoculated onto 96-well microplate at a concentration of 5×10^4 cells/well, and were cultured for 24 hours. After removal of the medium by aspiration, to each well was added an assay buffer containing a test compound (1 μM), and [125I]/RANTES (Amersham) used as a ligand at a concentration of […]. […]
With `CCCCOCCOc1ccc(-c2ccc3c(c2)C=C(C(=O)Nc2ccc([S+]([O-])Cc4nnnn4CC)cc2)CCN3CC(C)C)cc1` (stereo not drawn) [Compound 242, 7-[4-(2-butoxyethoxy)phenyl]-1-isobutyl-N-[4-[[(1-ethyl-tetrazol-5-yl)methyl]sulfinyl]phenyl]-2,3-dihydro-1-benzazepine-4-carboxamide], the inhibition at 1 µM was found to be 94%.
`CCCCOCCOc1ccc(-c2ccc3c(c2)C=C(C(=O)Nc2ccc([S+]([O-])Cc4cccnc4C)cc2)CCN3CC(C)C)cc1` (stereo not drawn) [Compound 251, 7-[4-(2-butoxyethoxy)phenyl]-1-isobutyl-N-[4-[[(2-methyl-3-pyridinyl)methyl]sulfinyl]phenyl]-2,3-dihydro-1-benzazepine-4-carboxamide]: the inhibition at 1 µM was 99%.
Same read-out and setting: then `CCCCOCCOc1ccc(-c2ccc3c(c2)C=C(C(=O)Nc2ccc([S+]([O-])Cc4cccnn4)cc2)CCN3CC(C)C)cc1` (stereo not drawn) [Compound 259, 7-[4-(2-butoxyethoxy)phenyl]-1-isobutyl-N-[4-[(3-pyridazinylmethyl)sulfinyl]phenyl]-2,3-dihydro-1-benzazepine-4-carboxamide], with 88%; and `CCCCOCCOc1ccc(-c2ccc3c(c2)C=C(C(=O)Nc2ccc([S+]([O-])Cc4cccnc4C)nc2)CCN3CC(C)C)cc1` (stereo not drawn) [Compound 272, 7-[4-(2-butoxyethoxy)phenyl]-1-isobutyl-N-[6-[[(2-methyl-3-pyridinyl)methyl]sulfinyl]-3-pyridinyl]-2,3-dihydro-1-benzazepine-4-carboxamide], with 98%; and `CCCCOCCOc1ccc(-c2ccc3c(c2)C=C(C(=O)Nc2ccc([S+]([O-])Cc4cncn4CCOC)cc2)CCN3CC(C)C)cc1` (stereo not drawn) [Compound 308, 7-[4-(2-butoxyethoxy)phenyl]-1-isobutyl-N-[4-[[[1-(2-methoxyethyl)imidazol-5-yl]methyl]sulfinyl]phenyl]-2,3-dihydro-1-benzazepine-4-carboxamide], with 100%.
Still for that read-out and setting: then `CCCCOCCOc1ccc(-c2ccc3c(c2)C=C(C(=O)Nc2ccc4nc([S+]([O-])Cc5cncn5CCC)[nH]c4c2)CCN3CC(C)C)cc1` (stereo not drawn) [Compound 313, 7-[4-(2-butoxyethoxy)phenyl]-1-isobutyl-N-[2-[[(1-propylimidazol-5-yl)methyl]sulfinyl]benzimidazol-5-yl]-2,3-dihydro-1-benzazepine-4-carboxamide], with 95%.
As to `CCCCOCCOc1ccc(-c2ccc3c(c2)C=C(C(=O)Nc2ccc(SCc4nccn4C)c(C)c2)CCN3CC(C)C)cc1` [Compound 355, 7-[4-(2-butoxyethoxy)phenyl]-1-isobutyl-N-[3-methyl-4-[[(1-methylimidazol-2-yl)methyl]sulfanyl]phenyl]-2,3-dihydro-1-benzazepine-4-carboxamide], the inhibition at 1 µM was found to be 99%.
The same measure, in the same setting: then `CCCCOCCOc1ccc(-c2ccc3c(c2)C=C(C(=O)Nc2ccc(SCc4nccn4C4CC4)cc2)CCN3CC(C)C)cc1` [Compound 366, 7-[4-(2-butoxyethoxy)phenyl]-N-[4-[[[1-cyclopropylimidazol-2-yl]methyl]sulfanyl]phenyl]-1-isobutyl-2,3-dihydro-1-benzazepine-4-carboxamide], with 96%; and `CCCCOCCOc1ccc(-c2ccc3c(c2)C=C(C(=O)Nc2ccc([S+]([O-])Cc4nccn4C4CC4)cc2)CCN3CC(C)C)cc1` (stereo not drawn) [Compound 367, 7-[4-(2-butoxyethoxy)phenyl]-N-[4-[[[1-cyclopropylimidazol-2-yl]methyl]sulfinyl]phenyl]-1-isobutyl-2,3-dihydro-1-benzazepine-4-carboxamide], with 96%.
Same read-out and setting: then `CCCCOCCOc1ccc(-c2ccc3c(c2)C=C(C(=O)Nc2ccc([S+]([O-])Cc4cncn4CCC)cc2)CCN3CC(C)C)cc1` (stereo not drawn) [Compound 371, 7-[4-(2-butoxyethoxy)phenyl]-1-isobutyl-N-[4-[[[1-propylimidazol-5-yl]methyl]sulfinyl]phenyl]-2,3-dihydro-1-benzazepine-4-carboxamide], with 100%; and `CCCCOCCOc1ccc(-c2ccc3c(c2)C=C(C(=O)Nc2ccc([S+]([O-])Cc4cncn4CCC)cc2)CCN3CCC)cc1` (stereo not drawn) [Compound 375, 7-[4-(2-butoxyethoxy)phenyl]-1-propyl-N-[4-[[[1-propylimidazol-5-yl]methyl]sulfinyl]phenyl]-2,3-dihydro-1-benzazepine-4-carboxamide], with 92%.
On the same count and under the same terms, then `CCCCOCCOc1ccc(-c2ccc3c(c2)C=C(C(=O)Nc2ccc(SCc4cncn4C(C)C)cc2)CCN3CC(C)C)cc1` [Compound 383, 7-[4-(2-butoxyethoxy)phenyl]-1-isobutyl-N-[4-[[[1-isopropylimidazol-5-yl]methyl]sulfanyl]phenyl]-2,3-dihydro-1-benzazepine-4-carboxamide], with 93%.
As for `CCCCOCCOc1ccc(-c2ccc3c(c2)C=C(C(=O)Nc2ccc(SCc4cnc5n4CCCC5)cc2)CCN3CC(C)C)cc1` [Compound 404, 7-[4-(2-butoxyethoxy)phenyl]-1-isobutyl-N-[4-[[(5,6,7,8-tetrahydroimidazo[1,2-a]pyridin-3-yl)methyl]thio]phenyl]-2,3-dihydro-1H-1-benzazepine-4-carboxamide], the inhibition at 1 µM came to 85%.
Same read-out and setting: then `CCCCOCCOc1ccc(-c2ccc3c(c2)C=C(C(=O)Nc2ccc([S+]([O-])Cc4nccn4CCOC(C)=O)cc2)CCN3CC(C)C)cc1` (stereo not drawn) [Compound 411, [2-[[[4-[[[7-[4-(2-butoxyethoxy)phenyl]-1-isobutyl-2,3-dihydro-1H-1-benzazepin-4-yl]carbonyl]amino]phenyl]sulfinyl]methyl]-1H-imidazol-1-yl]ethyl acetate], with 100%.
Regarding `CCCCOCCOc1ccc(-c2ccc3c(c2)C=C(C(=O)Nc2ccc(S(=O)(=O)Cc4nccn4CCCC(=O)NC)cc2)CCN3CC(C)C)cc1` [Compound 425, 7-[4-(2-butoxyethoxy)phenyl]-N-[4-[[[1-[4-(methylamino)-4-oxobutyl]-1H-imidazol-2-yl]methyl]sulfonyl]phenyl]-1-isobutyl-2,3-dihydro-1H-1-benzazepine-4-carboxamide], the inhibition at 1 µM was determined as 100%.
On the same count and under the same terms, then `CCCCOCCOc1ccc(-c2ccc3c(c2)C=C(C(=O)Nc2ccc([S+]([O-])Cc4cncn4CCOC(C)=O)cc2)CCN3CC(C)C)cc1` (stereo not drawn) [Compound 427, [5-[[[4-[[[7-[4-(2-butoxyethoxy)phenyl]-1-isobutyl-2,3-dihydro-1H-1-benzazepin-4-yl]carbonyl]amino]phenyl]sulfinyl]methyl]-1H-imidazol-1-yl]ethyl acetate], with 100%.

Staying with this experiment, now noted: test compound 1 μM, [125I]-RANTES as ligand, room temperature, 40 minutes.
With `CCCCOCCOc1ccc(-c2ccc3c(c2)C=C(C(=O)Nc2ccc(SCc4nccn4CCCO)cc2)CCN3CC(C)C)cc1` [Compound 436], the “Binding Inhibitory Ratio (%)” value worked out at 100%.
`CCCCOCCOc1ccc(-c2ccc3c(c2)C=C(C(=O)Nc2ccc([S+]([O-])Cc4nccn4CCCO)cc2)CCN3CC(C)C)cc1` (stereo not drawn) [Compound 437]: the “Binding Inhibitory Ratio (%)” value came out at 100%.
